Each structure is given as a SMILES string.

The target of this assay is FGFR2 (Homo sapiens, UniProt P21802). Nature of the assay: FGFR2 Kinase Protocol - Condition 2 (Reaction Biology HotSpot radiometric kinase assay, no preincubation). It is filed as biochemical. The conditions noted are these: poly[Glu:Tyr] (4:1) 0.2 mg/ml, ATP 100 microM, 2 hr room temperature. In short, it runs like this: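 Ten-point, 3-fold compound dilutions were tested against wildtype or V564F FGFR2 with 100 µM ATP (33P-labelled), no preincubation, and 0.2 mg/ml poly[Glu:Tyr] (4:1) substrate. After 2 hr at room temperature, incorporation was read on P81 filter paper; IC50 fitted from activity remaining relative to vehicle.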
Chain of FGFR2 (P21802 22-821): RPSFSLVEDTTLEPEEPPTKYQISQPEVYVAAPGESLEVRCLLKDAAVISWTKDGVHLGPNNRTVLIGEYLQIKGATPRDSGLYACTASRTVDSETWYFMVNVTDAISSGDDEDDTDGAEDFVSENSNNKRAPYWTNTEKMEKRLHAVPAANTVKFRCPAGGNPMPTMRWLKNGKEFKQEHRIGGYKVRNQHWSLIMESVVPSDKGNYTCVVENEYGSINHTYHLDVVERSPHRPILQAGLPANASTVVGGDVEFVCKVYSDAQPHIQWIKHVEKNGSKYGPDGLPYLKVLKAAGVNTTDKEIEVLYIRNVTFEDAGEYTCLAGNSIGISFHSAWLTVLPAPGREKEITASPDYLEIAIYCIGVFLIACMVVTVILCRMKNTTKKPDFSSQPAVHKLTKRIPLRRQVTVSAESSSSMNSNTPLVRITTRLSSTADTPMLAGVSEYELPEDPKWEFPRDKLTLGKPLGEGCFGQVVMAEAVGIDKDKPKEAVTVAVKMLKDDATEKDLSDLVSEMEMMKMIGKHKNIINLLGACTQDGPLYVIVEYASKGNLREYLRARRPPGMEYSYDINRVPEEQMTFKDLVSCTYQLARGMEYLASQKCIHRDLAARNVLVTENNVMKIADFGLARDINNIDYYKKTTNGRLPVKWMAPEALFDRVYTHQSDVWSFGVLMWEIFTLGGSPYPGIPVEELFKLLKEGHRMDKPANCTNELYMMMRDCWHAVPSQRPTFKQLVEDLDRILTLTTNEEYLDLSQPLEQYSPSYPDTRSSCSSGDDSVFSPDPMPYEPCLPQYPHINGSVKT

The compound `[2H]C([2H])([2H])OC[C@H]1C[C@H](n2nc(C#Cc3cc4ncn(CC)c4cc3Cl)c3c(N)ncnc32)CN1C(=O)C=C` [Example 135, 1-[(2R,4S)-4-[4-Amino-3-[2-(6-chloro-1-ethyl-1,3-benzodiazol-5-yl)ethynyl]pyrazolo[3,4-d]pyrimidin-1-yl]-2-[(2H3)methoxymethyl]pyrrolidin-1-yl]prop-2-en-1-one] showed a concentration for half-maximal inhibition (IC50) not above 100 nM.

Take `C=CC(=O)N1CC[C@H](n2nc(C#Cc3cc4ncn(CC)c4c(F)c3Cl)c3c(N)nccc32)C1` [Example 136, (S)-1-(3-(4-Amino-3-((6-chloro-1-ethyl-7-fluoro-1H-benzo[d]imidazol-5-yl)ethynyl)-1H-pyrazolo[4,3-c]pyridin-1-yl)pyrrolidin-1-yl)prop-2-en-1-one]: the IC50 is not above 100 nM.

As for `C=CC(=O)N1CC[C@H](n2nc(C#Cc3cc4ncn(C)c4cc3Cl)c3c(N)nccc32)C1` [Example 137, (S)-1-(3-(4-Amino-3-((6-chloro-1-methyl-1H-benzo[d]imidazol-5-yl)ethynyl)-1H-pyrazolo[4,3-c]pyridin-1-yl)pyrrolidin-1-yl)prop-2-en-1-one], the IC50 was not above 100 nM.

`C=CC(=O)N1C[C@@H](n2nc(C#Cc3cc4ncn(C5CC5)c4cc3Cl)c3c(N)nccc32)C[C@@H]1COC` [Example 138, 1-[(2R,4S)-4-{4-Amino-3-[2-(6-chloro-1-cyclopropyl-1,3-benzodiazol-5-yl)ethynyl]pyrazolo[4,3-c]pyridin-1-yl}-2-(methoxymethyl)pyrrolidin-1-yl]prop-2-en-1-one]: the IC50 was not above 100 nM.

On to `C=CC(=O)N1C[C@@H](n2nc(C#Cc3c(F)cc4c(ncn4C)c3F)c3c(N)ncnc32)C[C@@H]1COC(F)F` [Example 139, 1-[(2R,4S)-4-{4-Amino-3-[2-(4,6-difluoro-1-methyl-1,3-benzodiazol-5-yl)ethynyl]pyrazolo[3,4-d]pyrimidin-1-yl}-2-[(difluoromethoxy)methyl]pyrrolidin-1-yl]prop-2-en-1-one], for which the IC50 was not above 100 nM.

Regarding `C=CC(=O)N1CC[C@H](n2nc(C#Cc3cc4ncn(C)c4cc3F)c3c(N)ncnc32)C1` [Example 140, 1-[(3S)-3-{4-Amino-3-[2-(6-fluoro-1-methyl-1,3-benzodiazol-5-yl)ethynyl]pyrazolo[3,4-d]pyrimidin-1-yl}pyrrolidin-1-yl]prop-2-en-1-one], the IC50 is not above 100 nM.

Turning to `C=CC(=O)N1CC[C@H](n2nc(C#Cc3cc4ncn(C)c4cc3F)c3c(N)nccc32)C1` [Example 141, 1-[(3S)-3-{4-Amino-3-[2-(6-fluoro-1-methyl-1,3-benzodiazol-5-yl)ethynyl]pyrazolo[4,3-c]pyridin-1-yl}pyrrolidin-1-yl]prop-2-en-1-one], the IC50 was not above 100 nM.

Compound `C=CC(=O)N1CC[C@H](n2cc(C#Cc3cc4ncn(C)c4cc3F)c3c(N)ncnc32)C1` [Example 142, (S)-1-(3-(4-Amino-5-((6-fluoro-1-methyl-1H-benzo[d]imidazol-5-yl)ethynyl)-7H-pyrrolo[2,3-d]pyrimidin-7-yl)pyrrolidin-1-yl)prop-2-en-1-one] displayed a 50% inhibitory concentration (IC50) not above 100 nM.

`C=CC(=O)N1CC[C@H](n2cc(C#Cc3cc4ncn(CC)c4cc3Cl)c3c(N)ncnc32)C1` [Example 143, (S)-1-(3-(4-Amino-5-((6-chloro-1-ethyl-1H-benzo[d]imidazol-5-yl)ethynyl)-7H-pyrrolo[2,3-d]pyrimidin-7-yl)pyrrolidin-1-yl)prop-2-en-1-one]: the IC50 was not above 100 nM.

Turning to `C=CC(=O)N1CC[C@H](n2nc(C#Cc3cc4ncn(CC)c4c(F)c3Cl)c3c(N)ncnc32)C1` [Example 144, 1-[(3S)-3-{4-Amino-3-[2-(6-chloro-1-ethyl-7-fluoro-1,3-benzodiazol-5-yl)ethynyl]pyrazolo[3,4-d]pyrimidin-1-yl}pyrrolidin-1-yl]prop-2-en-1-one], the IC50 was not above 100 nM.

On to `C=CC(=O)N1CC[C@H](n2nc(C#Cc3cc4ncn(C)c4c(F)c3Cl)c3c(N)ncnc32)C1` [Example 145, (S)-1-(3-(4-Amino-3-((6-chloro-7-fluoro-1-methyl-1H-benzo[d]imidazol-5-yl)ethynyl)-1H-pyrazolo[3,4-d]pyrimidin-1-yl)pyrrolidin-1-yl)prop-2-en-1-one], for which the IC50 was not above 100 nM.

In turn, `C=CC(=O)N1CC[C@H](n2nc(C#Cc3cc4ncn(C5CC5)c4cc3F)c3c(N)ncnc32)C1` [Example 146, (S)-1-(3-(4-Amino-3-((1-cyclopropyl-6-fluoro-1H-benzo[d]imidazol-5-yl)ethynyl)-1H-pyrazolo[3,4-d]pyrimidin-1-yl)pyrrolidin-1-yl)prop-2-en-1-one] showed a half-maximal inhibitory concentration (IC50) not above 100 nM.

With `C=CC(=O)N1CC[C@H](n2nc(C#Cc3cc4ncn(C)c4cc3Cl)c3c(N)ncnc32)C1` [Example 147, 1-[(3S)-3-{4-Amino-3-[2-(6-chloro-1-methyl-1,3-benzodiazol-5-yl)ethynyl]pyrazolo[3,4-d]pyrimidin-1-yl}pyrrolidin-1-yl]prop-2-en-1-one], the half-maximal inhibitory concentration (IC50) is not above 100 nM.

On to `C=CC(=O)N1CC[C@H](n2nc(C#Cc3cc4ncn(C)c4c(F)c3Cl)c3c(N)nccc32)C1` [Example 148, 1-[(3S)-3-{4-Amino-3-[2-(6-chloro-7-fluoro-1-methyl-1,3-benzodiazol-5-yl)ethynyl]pyrazolo[4,3-c]pyridin-1-yl}pyrrolidin-1-yl]prop-2-en-1-one], for which the IC50 is not above 100 nM.

Take `C=CC(=O)N1CC[C@H](n2nc(C#Cc3cc4ncn(C5CC5)c4cc3F)c3c(N)nccc32)C1` [Example 149, 1-[(3S)-3-{4-Amino-3-[2-(1-cyclopropyl-6-fluoro-1,3-benzodiazol-5-yl)ethynyl]pyrazolo[4,3-c]pyridin-1-yl}pyrrolidin-1-yl]prop-2-en-1-one]: the IC50 is not above 100 nM.

Turning to `C=CC(=O)N1CC[C@H](n2nc(C#Cc3cc4ncn(CC)c4cc3F)c3c(N)nccc32)C1` [Example 150, 1-[(3S)-3-{4-Amino-3-[2-(1-ethyl-6-fluoro-1,3-benzodiazol-5-yl)ethynyl]pyrazolo[4,3-c]pyridin-1-yl}pyrrolidin-1-yl]prop-2-en-1-one], the IC50 is not above 100 nM.

On to `C=CC(=O)N1C[C@@H](n2nc(C#Cc3cc4ncn(C)c4cc3F)c3c(N)ncnc32)C[C@@H]1C` [Example 151, 1-((2S,4S)-4-(4-amino-3-((1-methyl-6-fluoro-1H-benzo[d]imidazol-5-yl)ethynyl)-1H-pyrazolo[3,4-d]pyrimidin-1-yl)-2-methylpyrrolidin-1-yl)prop-2-en-1-one], for which the 50% inhibitory concentration (IC50) is not above 100 nM.

As for `C=CC(=O)N1CC[C@H](n2nc(C#Cc3cc4ncn(CC)c4cc3F)c3c(N)ncnc32)C1` [Example 152, 1-[(3S)-3-{4-Amino-3-[2-(1-ethyl-6-fluoro-1,3-benzodiazol-5-yl)ethynyl]pyrazolo[3,4-d]pyrimidin-1-yl}pyrrolidin-1-yl]prop-2-en-1-one], the IC50 was not above 100 nM.

The compound `C=CC(=O)N1CC[C@H](n2nc(C#Cc3cc4ncn(CC)c4c(F)c3F)c3c(N)ncnc32)C1` [Example 153, 1-[(3S)-3-{4-Amino-3-[2-(1-ethyl-6,7-difluoro-1,3-benzodiazol-5-yl)ethynyl]pyrazolo[3,4-d]pyrimidin-1-yl}pyrrolidin-1-yl]prop-2-en-1-one] registered an IC50 not above 100 nM.

With `C=CC(=O)N1CC[C@H](n2nc(C#Cc3cc4ncn(C)c4c(F)c3F)c3c(N)ncnc32)C1` [Example 154, 1-[(3S)-3-{4-Amino-3-[2-(6,7-difluoro-1-methyl-1,3-benzodiazol-5-yl)ethynyl]pyrazolo[3,4-d]pyrimidin-1-yl}pyrrolidin-1-yl]prop-2-en-1-one], the 50% inhibitory concentration (IC50) is not above 100 nM.

On to `C=CC(=O)N1CC[C@H](n2nc(C#Cc3cc4ncn(CC)c4c(F)c3F)c3c(N)nccc32)C1` [Example 155, 1-[(3S)-3-{4-Amino-3-[2-(1-ethyl-6,7-difluoro-1,3-benzodiazol-5-yl)ethynyl]pyrazolo[4,3-c]pyridin-1-yl}pyrrolidin-1-yl]prop-2-en-1-one], for which the IC50 was not above 100 nM.

Take `C=CC(=O)N1CC[C@H](n2nc(C#Cc3cc4ncn(C)c4c(F)c3F)c3c(N)nccc32)C1` [Example 156, 1-[(3S)-3-{4-Amino-3-[2-(6,7-difluoro-1-methyl-1,3-benzodiazol-5-yl)ethynyl]pyrazolo[4,3-c]pyridin-1-yl}pyrrolidin-1-yl]prop-2-en-1-one]: the IC50 is not above 100 nM.

For `C=CC(=O)N1C[C@@H](n2nc(C#Cc3cc4ncn(CC)c4c(F)c3F)c3c(N)ncnc32)C[C@@H]1CC#N` [Example 157, 2-[(2R,4S)-4-{4-Amino-3-[2-(1-ethyl-6,7-difluoro-1,3-benzodiazol-5-yl)ethynyl]pyrazolo[3,4-d]pyrimidin-1-yl}-1-(prop-2-enoyl)pyrrolidin-2-yl]acetonitrile], the IC50 was not above 100 nM.

With `C=CC(=O)N1C[C@@H](n2nc(C#Cc3cc4ncn(C)c4c(F)c3F)c3c(N)ncnc32)C[C@@H]1CC#N` [Example 158, 2-[(2R,4S)-4-{4-Amino-3-[2-(6,7-difluoro-1-methyl-1,3-benzodiazol-5-yl)ethynyl]pyrazolo[3,4-d]pyrimidin-1-yl}-1-(prop-2-enoyl)pyrrolidin-2-yl]acetonitrile], the IC50 was not above 100 nM.

Turning to `C=CC(=O)N1C[C@@H](n2nc(C#Cc3cc4ncn(C)c4c(F)c3F)c3c(N)nccc32)C[C@@H]1CC#N` [Example 159, 2-((2R,4S)-1-Acryloyl-4-(4-amino-3-((6,7-difluoro-1-methyl-1H-benzo[d]imidazol-5-yl)ethynyl)-1H-pyrazolo[4,3-c]pyridin-1-yl)pyrrolidin-2-yl)acetonitrile], the IC50 was not above 100 nM.

`C=CC(=O)N1C[C@@H](n2nc(C#Cc3cc4ncn(CC)c4c(F)c3F)c3c(N)nccc32)C[C@@H]1CC#N` [Example 160, 2-[(2R,4S)-4-{4-Amino-3-[2-(1-ethyl-6,7-difluoro-1,3-benzodiazol-5-yl)ethynyl]pyrazolo[4,3-c]pyridin-1-yl}-1-(prop-2-enoyl)pyrrolidin-2-yl]acetonitrile] registered a 50% inhibitory concentration (IC50) not above 100 nM.
